We go through 1 compound from patent US20240166594A1, “PHOTOCAGED CITRULLINE ANALOGS AND METHODS FOR SITE-SPECIFIC INCORPORATION OF CITRULLINE INTO PROTEINS” (University of Massachusetts, priority 2021, published 2024).

Where two headings read alike, the source gives them in different places.

One data set deals with HEK293T cells. Put plainly: Cytotoxicity of SM60 in HEK293T cells (CellTiter-Blue). It counts as cell-based. Particulars: Homo sapiens, HEK-293T, 48 h, read-out: EC50 for inhibition of cell proliferation. As to the method: HEK293T cells were seeded (2×10^4 cells/well) on a 96-well plate and grown in DMEM (supplemented with 10% heat-inactivated fetal bovine serum, 100 units/mL penicillin, 100 μg/mL streptomycin) for 48 h. Cells were then treated with DMSO (for control) or various concentrations of SM60. In a separate experiment, cells were briefly (3 min) irradiated with 365 nm UV following SM60 treatment and were allowed to grow at 37° C. for 48 h. Cell viability was measured using CellTiter-Blue® (Promega) by following the manufacturer's protocol. Equation 1,
Y=Bottom+(Top−Bottom)/[1+10^((log EC50−X)*Hillslope)] (1),
was used to fit a ten-point dose-response curve to determine the EC50 values for inhibition of cell-proliferation using GraphPad Prism 8.0. Top and Bottom are plateaus of the dose-response curve, X is the log of SM60-concentration, Hillslope is the slope factor or Hill slope. All the experiments were performed in triplicate.

Data set [1] is described as follows: Photodecaging to citrulline with 365 nm UV (HPLC, LC-MS, 1H NMR). It counts as physicochemical. Particulars: up to 5 min, PBS pH 7.4 with 2 mM DTT (SM70: 1:1 acetonitrile/PBS). The text has this:
FIG. 1. SM60, a photocaged-citrulline and its conversion to citrulline with 365 nm UV light. a, Conversion of peptidyl-arginine to peptidyl-citrulline by the PADs. b, Chemical structures of SM60 and SM70. c, Schematic representation of the incorporation of SM60 into proteins by an engineered LeuRS-tRNA^Leu pair and subsequent conversion to citrulline. d, Decaging of SM60 to citrulline with 365 nm UV irradiation. Left and right panels indicate the HPLC and ion chromatograms, showing the disappearance of SM60 and the formation of citrulline (Cit), respectively, with increasing UV exposure. Quantitative analyses of decaging and Cit formation are shown in the insets. Assay mixture: 1 mM SM60, 2 mM DTT, Phosphate-buffered saline pH 7.4.
FIG. 8. ^1H NMR spectrum of SM60 in D2O after UV (365 nm) exposure for 1, 2, 3, 4 and 5 min. […] Furthermore, an upfield shift was also observed for the ‘b’ protons upon the formation of citrulline. The multiplets at 3.6-3.7 and 2.6-2.7 ppm are due to DTT used in the assay. Assay condition: 1 mM SM60, 2 mM DTT, D2O.
FIG. 9. (A) Photodecaging of Fmoc-SM60 to produce Fmoc-Cit. (B) HPLC chromatograms indicating the disappearance of Fmoc-SM60 and the production of Fmoc-Cit with increasing UV exposure. […] Assay mixture: 0.5 mM Fmoc-SM60, 2 mM DTT, Phosphate-buffered saline pH 7.4. ESI-Mass spectra of Fmoc-SM60 (C) and Fmoc-Cit (D).
FIG. 10. […]

Data set [2] concerns EcLeuRS-tRNACUA^EcLeu pair. Put plainly: EGFP-39-TAG reporter expression assay in HEK293T cells. It counts as cell-based. Particulars: EcLeuRS mutant (M40I, Y499I, Y527A, H529G, T252A). The text has this:
The first two pairs are restricted to structural analogs of phenylalanine and tryptophan, respectively, precluding their use to genetically encode SM60. However, both the archaeal pyrrolysyl (PylRS/tRNA^Pyl) and E. coli leucyl (EcLeuRS-tRNACUA^EcLeu) pairs have been engineered to charge UAAs structurally similar to SM60. […] This property has provided a facile route to rapidly expand the repertoire of genetically encoded UAAs without having to engineer new aaRS mutants for each distinct substrate. To explore if such a polyspecific aaRS can accept SM60 as a substrate, several existing PylRS and EcLeuRS mutants were screened using an EGFP-39-TAG expression assay in HEK293T cells in the presence of their cognate amber suppressor tRNA. […] Furthermore, UV irradiation of cells expressing EGFP-39-SM60 before lysis followed by protein purification and MS analysis afforded a single protein mass consistent with the complete deprotection and incorporation of citrulline at position 39 of EGFP (FIG. 2d).
HEK293T cells were maintained at 37° C. in a humidified incubator supplemented with 5% CO2. […]
EGFP fluorescence was analyzed 48 h after transfection. […] Lysate were clarified by centrifugation at 16,000×g for 10 min and 100 μL of supernatant was transferred to a clear-bottom 96-well plate for fluorescence measurement following previously described protocol. […]

As to `N[C@@H](CCCNC(=O)NCc1ccccc1[N+](=O)[O-])C(=O)O` [SM60], the EC50 was above 10 mM in the data set with HEK293T cells (SM60 alone); 4.5 ± 0.2 mM with HEK293T cells (combination of SM60 and 365 nm UV (3 min)). The “photodecaging / conversion to citrulline form” value in data set [1] was “quantitatively converted to Cit”. Moreover, in data set [2], the EGFP-39-TAG reporter expression entry is reported as “robust expression of the fluorescence reporter only when SM60 was supplemented in the medium”.
